According to the NIST ThermoML archive (doi:10.1016/j.jct.2004.09.007):

What was measured:
[1] = 298.15 K; 101.33 kPa; Liquid; Pycnometric method
[2] = molar heat capacity at constant pressure; details: 101.3 kPa, Liquid, Large sample (1 g) DSC
[3] = molar heat capacity at constant pressure; xn = mol fraction of the nth substance listed; details: 101.3 kPa, Liquid, Large sample (1 g) DSC, x2 = 0

CC(O)CCO (centres undefined) [1,3-butanediol]
Details | mass density [kg/m3]
[1] | 1000.42

[2]
Details | molar heat capacity at constant pressure [J/K/mol]
285.15 K | 211.74
285.65 K | 212.17
288.15 K | 213.57
290.65 K | 215.06
293.15 K | 216.58
295.65 K | 218.04
298.15 K | 219.62
300.65 K | 221.14
303.15 K | 222.8
305.65 K | 224.37
308.15 K | 226.07
310.65 K | 227.65
313.15 K | 229.24
315.65 K | 230.82
318.15 K | 232.6
320.65 K | 234.14
323.15 K | 235.83
325.65 K | 237.52
328.15 K | 239.08
330.65 K | 240.59
333.15 K | 242.28
335.65 K | 243.86
338.15 K | 245.11
340.65 K | 247.19
343.15 K | 248.62
345.65 K | 250.13
348.15 K | 251.66
350.65 K | 253.24
353.15 K | 254.86

CCCCO [butan-1-ol]
Details | mass density [kg/m3]
[1] | 805.82

[2]
Details | molar heat capacity at constant pressure [J/K/mol]
285.15 K | 168.64
285.65 K | 169.01
288.15 K | 170.39
290.65 K | 172
293.15 K | 173.56
295.65 K | 175.19
298.15 K | 176.82
300.65 K | 178.53
303.15 K | 180.42
305.65 K | 182.27
308.15 K | 184.15
310.65 K | 186.08
313.15 K | 187.99
315.65 K | 189.99
318.15 K | 192.06
320.65 K | 194.2
323.15 K | 196.35
325.65 K | 198.45
328.15 K | 200.45
330.65 K | 202.76
333.15 K | 204.94
335.65 K | 207.1
338.15 K | 209.17
340.65 K | 211.74
343.15 K | 213.82
345.65 K | 216.35
348.15 K | 218.32
350.65 K | 220.5
353.15 K | 222.81

CCCCO [butan-1-ol] + CC(O)CCO
[3]
Details | molar heat capacity at constant pressure [J/K/mol]
285.15 K | 168.64
285.65 K | 169.01
288.15 K | 170.39
290.65 K | 172
293.15 K | 173.56
295.65 K | 175.19
298.15 K | 176.82
300.65 K | 178.53
303.15 K | 180.42
305.65 K | 182.27
308.15 K | 184.15
310.65 K | 186.08
313.15 K | 187.99
315.65 K | 189.99
318.15 K | 192.06
320.65 K | 194.2
323.15 K | 196.35
325.65 K | 198.45
328.15 K | 200.45
330.65 K | 202.76
333.15 K | 204.94
335.65 K | 207.1
338.15 K | 209.17
340.65 K | 211.74
343.15 K | 213.82
345.65 K | 216.35
348.15 K | 218.32
350.65 K | 220.5
353.15 K | 222.81
